# In patent US11752125B2, “Anti-neuroinflammatory and protective compounds in Achillea fragrantissima” (THE STATE OF ISRAEL MINISTRY OF AGRICULTURE & RURAL …, priority 2013, dated 2023):
# What was measured:
# CREB = experiment: Aβ25-35-induced CREB phosphorylation in N2a cells (ELISA); type: cell-based; settings: concomitant treatment 30 min
# Method: 7. Measure the amount of total and phosphorylated CREB in cell lysates of N2a cells, by ELISA using the PathScan total CREB sandwich ELISA kit (Cell Signaling TECHNOLOGY) or the PathScan phosoho-CREB (Ser133) sandwich ELISA kit (Cell Signaling TECHNOLOGY), respectively. 8. Determine the optical density at 450 nm using a microplate reader.
# N2a cells were treated concomitantly with Aβ25-35 and TTF for 30 min. Cells were extracted and the levels of phosphorylated (FIG. 15 A) or total (FIG. 15 B) CREB were determined by specific ELISA kits. The results are the mean±SEM of one experiment (n=2).
# N2a cells were treated concomitantly with Aβ25-35 and AcA for 30 min. Cells were extracted and the levels of phosphorylated CREB were determined by A specific ELISA kit. The results are the mean±SEM of one experiment (n=2).
# N2a neuronal cells = experiment: Glutamate-induced ROS elevation in N2a cells; type: cell-based; settings: glutamate 100 μM, 20 hr
# Method: 1. Plate N2a cells (10,000 cells/0.2 ml/well of 96 wells plate) in DMEM (high glucose, 225 ml), Opti-MEM (250 ml) containing 1% Fetal Bovine Serum, 2 mM L-Glutamine, 100 U/ml penicillin and 100 micrograms/mL streptomycin and incubate (37° C., 5% CO2) for 24 hr. 2. Replace growth medium with a fresh one containing 20 micromolars 2′7′-dichlorofluorescein diacetate (DCF-DA); 3. Incubate 30 min (37° C., 5% CO2); 4. Wash twice with PBS; 5. Replace with fresh medium; 6. Read fluorescence of “time 0” at 485 nm (Extinction) and 528 nm (Emmision). 7. Incubate the cultured cells for 2 hours with freshly diluted TTF or AcA of the invention; 8. Add freshly diluted glutamate (100 micromolars); 9. Read fluorescence at 20 hr after the addition of glutamate (100 micromolars) (Ex: 485 nm and Em: 528 nm). 10. A reduction of 55% of ROS levels are indication for an anti-oxidant activity in this assay.
# N2a neuronal cells were treated with glutamate (100 μM) and TTF. ROS levels were measured 20 hr later. The results are shown in FIG. 17 and are the mean±SEM of two different experiments (n=16).
# N2a neuronal cells were treated with glutamate (100 μM) and achillolide A. ROS levels were measured 20 hr later. […]
# Achillolide A was added to N2a cells before (−2 h, −1 h) concomitant (0) or after (1 h, 2 h) the addition of glutamate. ROS levels were measured 20 h later. […]
# IL-1β = IL-1β secretion from LPS-stimulated microglial cells (ELISA); type: cell-based, rat; settings: LPS 100 ng/mL, 24 h
# Method: Cultures of primary rat microglial cells were prepared from cerebral cortices of 1-2 day-old neonatal Wistar rats as described. Microglial cells were seeded at 24-well plastic plates at 1×10^5/well in RPMI-1640 containing 2% FBS, 2 mM glutamine, 100 U/mL penicillin, 100 µg/mL streptomycin, 1 mM sodium pyruvate, and 50 μM β-mercaptoethanol. Cells were cultured for 36 h before treatments. The research was conducted in accordance with the NIH guide for the care and use of laboratory animals, and was approved by the Institutional Animal Care and Use Committee of The Volcani Center, Agricultural Research Organization (IL-135/07, approval date Apr. 11, 2007). All efforts were made to minimize animal suffering, and to reduce the number of animals used.
# For IL-1β measurements, 3.5×10^4 cells/well were plated on a 24-well tissue culture plate. After 24 h of incubation in DMEM containing 10% FBS, cells were stimulated with LPS (100 ng/mL) and treated with different concentrations of achillolide A. Conditioned media were collected twenty four hours later, and were tested with a rat IL1β ELISA kit (Novus Biologicals; CO, USA), according to the manufacturer's instructions.
# 2. Plate microglial cells (3.5×10^4 cells/well) on a 24-well tissue culture plate, in DMEM containing 10% FBS, 2 mM glutamine, 100 U/ml penicillin and 100 micrograms/mL streptomycin;
# Microglial cells were treated with different concentrations of TTF, followed by stimulation with LPS (100 ng/mL). After 24 h, conditioned media were collected and tested for cytokine levels by ELISA. Cell viability was determined using the crystal violet assay (FIG. 9C). Values represent the means±SEM (n=4 for each treatment).
# Microglial cells were treated with 20 μg/mL of achillolide A, followed by stimulation with LPS (4.5 ng/mL). After 5 h the levels of the indicated transcripts were measured by quantitative real-time PCR and the relative quantity (RQ) of the different transcripts were determined. […] The results are expressed as percentages relative to LPS-stimulated cells. […]
SMILES,effect on Aβ25-35-induced phosphorylation of CREB (CREB),effect on glutamate-induced ROS elevation (N2a neuronal cells),inhibition of IL-1β secretion (IL-1β) [%],effect on LPS-elicited IL-1β secretion (IL-1β)
C=C1CCC2=C(CO)C(=O)O[C@H]2/C=C(\C)[C@H](OC(C)=O)CC1=O [achillolide A],down-regulates,prevents the elevation in ROS levels,59,
"COc1cc(-c2oc3cc(OC)c(OC)c(O)c3c(=O)c2O)ccc1O [TTF, 3,5,4′-trihydroxy-6,7,3′-trimethoxyflavone]",significantly inhibited,prevents the elevation in ROS levels,,markedly inhibited
